The values below come from patent publication US20230257385A1, “SALT AND SOLID FORMS OF TABERNANTHALOG” (priority 2021, published 2023).

Structures can show the parent of a compound that is named as a salt.

Holding throughout (format): physicochemical
Series [1] in a line: Thermal study: glass transition temperature (Tg) of amorphous monofumarate and sorbate. The method, then: Each salt was analysed by DSC and TGA to determine the Tg of the amorphous form. Amorphous forms were generated by thermocycling the salt past the melt temperature, cooling the sample, and once cooled the samples were reheated. Open pan and sealed pan DSC were utilised, open pan DSC were heated past the melt event, cooled, and left to stand under ambient conditions overnight.
Sealed pans were immediately cycled with no time left to stand.
TGA (open pan) samples were analysed by thermocycle, with no time for the sample to stand under ambient conditions.
The amorphous forms were generated in these studies and characterised with their Tg being measured.
A hot stage microscope heating block was used to generate the amorphous phase in-situ, to allow analysis by XRPD. A silicon XRPD sample plate was loaded with the appropriate salt. The plate was heated past the melt event, removed from the hot stage microscope block and cooled to ambient in air and analysed by XRPD to ensure that the amorphous form was generated. The amorphous material was then analysed by ^1H NMR and LC-MS to ensure there was no change in chemical composition.
Two DSC pans were charge with the appropriate salt (Tabernanthalog·Sorbate, A1270−076-A1 and Tabernanthalog·Monofumarate, Tabernanthalog·Monofumarate), the first DSC pan was not sealed (open pan DSC), the second was sealed (hermetic sealed pan DSC). The open pan DSC was cycled from 20° C. to just after the melt event for each, cooled to −20° C. and left to stand under ambient conditions over night. The open pan DSC was then heated to just before the thermal degradation event (Tabernanthalog·Sorbate ca. 160° C., Tabernanthalog·Monofumarate ca. 210° C.) The hermetic sealed DSC was heated from 20° C. to just after the melt event, cooled to −20° C. then headed to just before the same degradation event.
Two TGA crucibles were charged with the appropriate salt (Tabemanthalog·Sorbate, A1270-076-A1, Tabernanthalog·Monofumarate, Tabernanthalog·Monofumarate), both were thermocycled from 20° C. to past the melt event and then cooled to −20° C., each pan was then immediately heated to just before the degradation event to measure the Tg event.

Series [2] in a line: Standing of solid forms over time (form by XRPD). From the text: FIG. 844 depicts the XRPD profile of Experiment 1-Sample D2 (Tabernanthalog·Sorbate, Form A).
Series [3] is described as follows: Amorphous study (freeze drying, evaporation, spray drying, bead milling) of monofumarate and sorbate. From the text: The purpose of this study was to generate amorphous material to be characterized and used in water activity studies. To achieve this, the two salts were exposed to a variety of techniques in attempts to generate the amorphous forms, including freeze drying, evaporation, vacuum desiccation and cryodesiccation spray drying. These techniques were not successful for the two salts Tabernanthalog·Monofumarate and Tabernanthalog·Sorbate.
Bead milling was attempted to generate the amorphous form of Tabernanthalog·Sorbate (Tabernanthalog·Sorbate, Form A). The salt underwent neat milling and separately with the addition of tetradecafluorohexane (TDFH). The following experiments were performed: Experiment 6-Sample A1 (30 Hz, 2 h), Experiment 6-Sample A2 (30 Hz, 5.5 h) and Experiment 6-Sample A3 (30 Hz 1 h, TDFH), the products from each experiment was analysed by XRPD to determine the extent of crystallinity (FIG. 812). None of the experiments provided amorphous material.
Each salt was charged to a 7 ml vial (50 mg, 1.0 wt). To the vial containing Tabernanthalog·Monofumarate (Tabernanthalog·Monofumarate), was charged water (10.0 vol), to fully dissolve the sample. Tabernanthalog·Sorbate (A1270-076-A1) was taken-up in ethanol/water (15% v/v, 10 vol), a further charge of water (1.0 ml), was added to ensure that the sample dissolved.
Vials containing the salt solutions were placed on the freeze drier apparatus overnight, and the cryo-desiccated products were recovered the following morning and analysed by XRPD each product remained crystalline.
Tabernanthalog·Monofumarate (A1272−082-A2, 51.1 mg, 1.0 wt) was charged to a 7 ml scintillation vial followed by THE (2 ml, […]), the suspension was heated to 50° C., until full dissolution was observed. The vial was stoppered by foil and a pin hole was pierced in the top. The vial was located under a steady N2 stream.
Tabernanthalog·Sorbate (A1270−076-A1, 99.4 mg, 1.0 wt) was charged to a 7 ml scintillation vial, followed by hexafluoroisopropanol (HFIPA, 5.0 vol, 0.5 ml), after which, the sample fully dissolved. The cap was replaced by foil and pierced on the top. Solvent was allowed to evaporate, to afford a dry, brown solid that was analysed by XRPD yielding crystalline pattern #7. Sample were dried under N2 stream for 5 h and reanalysed by XRPD, remaining as pattern #7
Tabernanthalog·Sorbate (A1270−076-A1, 50.0 mg, 1.0 wt) was charged to a 7 ml scintillation vial followed by hexafluoroisopropanol (HFIPA, 0.5 ml, 10 vol), to yield a clear solution. The solution was concentrated to dryness, by rotary evaporation, yielding an oil, that was allowed to stand undisturbed overnight.
Tabernanthalog·Sorbate (A1270−076-A1, 50.0 mg, 1.0 wt) was charged to a 7 ml scintillation vial, followed by methanol (300 μl, 6.0 vol). The solution was clarified by filtration into a 7 ml scintillation vial, containing diethyl ether (1.0 ml, 20.0 vol).
Tabernanthalog·Sorbate (A1270−076-A1, 102 mg, 1 wt) was charged to a 7.0 ml scintillation vial followed by methanol (1.9 ml, 19.0 vol). The solution was loaded into the spray drier apparatus.
The procedure yielded a brown powder (30 mg, 30% th.).
Tabernanthalog·Sorbate (A1270-076-A1, Form A) was charged to a 1.5 ml steel milling-vessel with a single 5 mm ball bearing. The sample was milled for 5.5 h at 30 Hz and yielded an off-white powder, that was analysed by XRPD, no change in crystallinity.

Series [4] in a line: Stability assessment at 40° C./75% RH (open vial / double bagged open vial). To be noted: 4-to-5-week period. How it is done:
FIG. 62 depicts the XRPD diffractogram overlay of the time point monitoring of 2-A (open vial) at 75% RH at 40° C. Overlay of, from bottom to top, the tabernanthalog monofumarate (Sample Reference 1, t=0), 2-A1 (t=3 h), 2-A2 (t=24 h), 2-A3 (t=48 h), 2-A4 (t=7 days), 2-A5 (t=2 weeks), 2-A6 (t=3 weeks), 2-A7 (t=4 weeks), 2-A8 (t=5 weeks).
FIG. 63 depicts the XRPD diffractogram overlay of the time point monitoring of 2-B (double bagged open vial) at 75% RH at 40° C. Overlay of, from bottom to top, the tabernanthalog monofumarate salt (Sample Reference 1, t=0), 2-B1 (t=3 h), 2-B2 (t=24 h), 2-B3 (t=48 h), 2-B4 (t=7 days), 2-B5 (t=2 weeks), 2-B6 (t=3 weeks), 2-B7 (t=4 weeks), 2-B8 (t=5 weeks).

A short description of series [5]: Qualitative solubility screen of the tabernanthalog monofumarate salt in solvents (Example 5, Experiment Reference 1; Example 2). The method, then:
Consistent with Example 1, samples were dissolved in various solvents/solvent systems and cooled to isolate solid material.
Tabernanthalog fumarate dissolved at 5 vol (200 mg/mL) only at reflux in two solvents, water and methanol. At 15 vol the product dissolved in both refluxing butanol and ethanol. Consistent with Example 1, the dissolved samples were cooled. On cooling, each of the four effective solvents yielded solid material. The solids thus obtained were analyzed by XRPD yielding diffractograms with novel peaks from products isolated from each of the four protic solvents.
The tabernanthalog monofumarate salt (Pattern #1, Sample Reference 1, 25 mg, 1 wt) was weighed out in 20 separate vials to qualitatively examine the solubility in an array of diverse solvents. […] If insoluble at 5 vol, the solvent quantity was increased to 10 vol, 15 vol and 20 vol of the respective solvent. […] The insoluble suspensions were additionally worked up for XRPD analysis. The resultant powder patterns were subsequently cross-referenced against the input supplied material.

Series [6] in a line: Stability examination of supplied monofumarate material at 40° C./75% RH (Example 5, Experiment Reference 2). To be noted: 75% RH at 40° C., up to 5 w.
The mark [7] stands for this setting: Amorphisation activity: Antisolvent/N2 Flow, 50 mg.
Setting [8] is: Amorphisation activity: Freeze dry, 50 mg.
Where [9] appears, read: Amorphisation activity: HFIP Evaporation, 50 mg.
Where [10] appears, read: Amorphisation activity: Milling, 50 or 100 mg.
[11] abbreviates: Amorphisation activity: Rotary Vac (MeOH), 50 mg.
Where [12] appears, read: Amorphisation activity: Spray drying (15% EtOH/Water), 100 mg.
The mark [13] stands for this setting: Amorphisation activity: Spray drying (MeOH), 100 mg.
The mark [14] stands for this setting: Amorphisation activity: THF/N2, 50 mg.

As to `COc1ccc2c3c([nH]c2c1)CCN(C)CC3` [Tabernanthalog•Sorbate], the Outcome entry in series [1] (Hot plate heat up, sorbate 20 to 170 ° C., monofumarate 20 to 210 ° C.) is on record as “Amorphous”; in series [1] (Hot stage plate heat up, sorbate 20 to 170 ° C., monofumarate 20 to 210 ° C.) it was “Amorphous”; in series [1] (Open Pan DSC, sorbate 20 to 165 to −20, O/N 20 to 230 ° C., monofumarate 20 to 210 to −20, O/N 20 to 210 ° C.) it was “Amorphous”; in series [1] (Sealed DSC, sorbate 20 to 165 to −20 to 230 ° C., monofumarate 20 to 210 to −20 to 210 ° C.), “Amorphous”; in series [1] (TGA, sorbate 20 to 165 to −20 to 230 ° C., monofumarate 20 to 210 to −20 to 210 ° C.), “Amorphous”; in series [2] (amorphous Experiment 1-Sample D1 standing overnight, ambient) it was “Crystalline”. Also, the Outcome result in series [3] (setting [7]) is “Crystalline”; in series [3] (setting [8]), “Crystalline”; in series [3] (setting [9]), “Crystalline and Gum”; in series [3] (setting [10]), “Crystalline”; in series [3] (setting [11]), “Crystalline”; in series [3] (setting [12]), “Crystalline”. Besides, the Outcome entry in series [3] (setting [13]) and in series [3] (setting [14]) was “Crystalline” throughout. Moreover, the “Glass temperature (Tgs)” value in series [1] (amorphous form generated in situ, sealed DSC thermocycle (Sample B1)) worked out at 22 °C. The “Form by XRPD” value in series [3] (setting [7]) is reported as “Form A”; in series [3] (setting [8]), “Form A”; in series [3] (setting [9]), “Pattern #7”; in series [3] (Amorphisation activity: Hot Melt Extrusion (Overnight), 250 mg), “Form A”; in series [3] (Amorphisation activity: Hot Melt Extrusion, 250 mg), “Form A”; in series [3] (setting [10]), “Form A”. Further, the “Form by XRPD” value in series [3] (setting [11]), in series [3] (setting [12]), in series [3] (setting [13]) and in series [3] (setting [14]) was “Form A” throughout.
As to `C/C=C/C=C/C(=O)O.COc1ccc2c3c([nH]c2c1)CCN(C)CC3` [Experiment 1-Sample D1], in series [2] (amorphous input, overnight, ambient conditions), the “form by XRPD after standing overnight in ambient conditions” value is “crystalline material”.
Take `COc1ccc2c3c([nH]c2c1)CCN(C)CC3` [tabernanthalog monofumarate Pattern #1]: the stability assessment result in series [4] is “no evidence for hydrate formation, chemical degradation or disproportionation”.
For the molecule `COc1ccc2c3c([nH]c2c1)CCN(C)CC3` [tabernanthalog monofumarate salt, 8-methoxy-3-methyl-1H,2H,3H,4H,5H,6H-azepino[4,5-b]indole fumarate], the “solubility in common solvents” value in series [5] (variety of solvents) is on record as “sparingly soluble in most of the common solvents investigated”. For the same molecule, the solubility in series [5] (water, methanol (two separate solvents), water, thermodynamic from solid, reflux, read-out: soluble in methanol/water at reflux) is at least 200 mg/mL. The “physical and chemical stability” value in series [6] (open vial and double polyethene bagged, XRPD, HPLC, TGA, DSC, fumarate) is “physically and chemically stable”. Besides, in series [6], the “change in chemical purity (HPLC)” value was “did not show significant changes in chemical purity”.
